How the values were obtained:
[1] = Hydrophobic filters and adsorption: Compound 1 concentration before and after sterile filtration of 10 mL Formulation 1; type: physicochemical; settings: for Filtrate (%) / Adsorption: n=6
Description: Formulation 1 comprising compound 1 was prepared as indicated above and filtered using selected sterile filters. Adsorption of compound 1 was determined by measuring the concentration of Compound 1 before and after filtration of 10 mL of Formulation 1 and subsequent calculation of the adsorption. Table 2 indicates the results of adsorption experiments using different filters.

[2] = Stability of Formulation 1 comprising HCl salt of Compound 1 for 12 hours at room temperature; type: physicochemical
Description: The term “concentration interval of compound 2” as used herein is corrected for the decay of fluorine-18.
Formulation 1 was prepared containing 3 μg/mL of Compound 1 (according to 3.3 μg/mL HCl salt of compound 1). The assay was analysed after preparation and after 12 hours storage according to the short shelf life of PET imaging tracer, typically expected between 6 and 10 hours. Eight individual batches were prepared and analysed for assay.
Table 1 indicates the results of stability testing after 12 hours of n=8 individually manufactured batches.
Minisart HY 0.2 μm is a sterile filter with PTFE hydrophobic membrane.

[3] = Formulation 1, Pall HP2002 0.2 μm, Versapor R hydrophobic

## CNc1ccc(/C=C/c2ccc(OCCOCCOCCF)cc2)cc1 [Compound 1]
[1]; Formulation 1, Millex GV 0.22 μm (Millipore, SLGV033RS), PVDF
  Filtrate (%): 94.0 ± 0.7%
[1]; Formulation 1, Millex GV 0.22 μm (SLGV033RS), PVDF
  Adsorption: 6.0%
[1]; Formulation 1, Minisart HY 0.2 μm (16596-HYK), PTFE
  Adsorption: 1.2%
[1]; Formulation 1, Minisart HY 0.2 μm (Sartorius Stedim, 16596-HYK), PTFE
  Filtrate (%): 98.8 ± 0.6%
[1]; Formulation 1, Minisart High Flow 0.2 μm (16532), polyethersulfone
  Adsorption: 36.1%
[1]; Formulation 1, Minisart High Flow 0.2 μm (Sartorius Stedim, 16532), polyethersulfone
  Filtrate (%): 63.9 ± 1.8%
[1]; Formulation 1, Minisart SRP25 0.2 μm (17575), PTFE
  Adsorption: 0.6%
[1]; Formulation 1, Minisart SRP25 0.2 μm (Sartorius Stedim, 17575), PTFE
  Filtrate (%): 99.4 ± 0.3%
[1]; [3]
  Adsorption: 14.2%
  Filtrate (%): 85.8 ± 0.3%
[1]; filter units containing PTFE and PVDF
  Amount of compound 1 adsorbed onto the filter material: low amount
[2]; Formulation 1, 3 μg/mL Compound 1 (3.3 μg/mL HCl salt), 12 h storage at RT, n=8 batches
  Visual Inspection: clear
[2]; Formulation 1, 12 h at RT, n=8, Minisart HY 0.2 μm
  ΔFiltration in %: 1.9%
[2]; Formulation 1, 12 h at RT, n=8, PTFE sterile filter, relative to concentration after preparation
  Content of Compound 1 in % after 12 h, after filtration (Minisart HY 0.2 μm): 97.0%
[2]; Formulation 1, 12 h at RT, n=8, relative to concentration after preparation (2.97 to 3.14 μg/mL)
  Content of Compound 1 in % after 12 h, prior filtration: 98.9%
[2]; Formulation 1, 12 hours, RT
  Chemical stability in the formulation: chemically stable

From patent US9308284B2, “Formulations of fluorinated stilbene suitable for PET imaging” (PIRAMAL IMAGING SA, priority 2011, dated 2016)
